pIC50: −log10 of the molar value. ≈ marks a conversion by molar mass, not a printed value. Calls of active or inactive are those of the source. The rule behind the calls is not given here.
Assays:
[1] = system: Mus musculus; assay: In vivo efficacy versus methicillin resistant Staphylococcus aureus in mice administered sc at 2x20mg/kg, expressed as percent survival; format: functional
[2] = system: Mus musculus; assay: In vivo efficacy versus methicillin resistant Staphylococcus aureus in mice administered sc at 2x2mg/kg, expressed as percent survival; format: functional
[3] = system: Staphylococcus aureus; assay: Concentration that inhibits 50% growth of methicillin resistant Staphylococcus aureus in the microdilution wells; format: functional, organism-based
[4] = system: Staphylococcus aureus; assay: Minimal inhibitory concentration for Staphylococcus aureus bacteria (ATCC 9604 SV) was determined by broth microdilution methodology; format: functional
[5] = system: Mus musculus; assay: In vivo efficacy versus methicillin resistant Staphylococcus aureus in mice administered sc at 20 mg/kg, expressed as percent survival; format: functional; conditions: route subcutaneous
[6] = system: Mus musculus; assay: In vivo efficacy versus methicillin resistant Staphylococcus aureus in mice administered sc at 2mg/kg, expressed as percent survival; format: functional
[7] = system: Staphylococcus aureus; assay: Concentration that inhibits 50% growth of methicillin resistant Staphylococcus aureus in the microdilution wells; IA=Inactive; format: functional, organism-based
[8] = system: Staphylococcus aureus; assay: Minimal inhibitory concentration for Staphylococcus aureus bacteria (ATCC 9604 SV) was determined by broth microdilution methodology; IA=Inactive; format: functional, organism-based

Row | SMILES | pIC50 [3] | MIC [4] [mg/L] | further results
1 | O=C(Nc1cc(C(F)(F)F)cc(C(F)(F)F)c1)Nc1cc(CO)nn1-c1ccc(Br)cc1 | 5.37 | 6.54 (≈ 12.5 µM) | Survival [1]: 33%; Survival [2]: 33%
2 | O=C(Nc1cc(Cl)cc(Cl)c1)Nc1cc(-c2ccccc2)nn1-c1ccc(C(F)(F)F)cc1 | 7.09 | 12.3 (≈ 25 µM) | survival at 20 mg/kg [5]: 12.5%; survival at 2 mg/kg [6]: 0%
3 | Cc1ccccc1NC(=O)Nc1cc(-c2ccccc2)nn1-c1ccc(C(F)(F)F)cc1 | – | – | IC50 [7]: Not Active; MIC [8]: inactive
4 | O=C(Nc1cc(Cl)cc(Cl)c1)Nc1cc(-c2ccccc2)nn1-c1ccc(Cl)cc1 | 6.83 | > 22.9 | survival at 20 mg/kg [5]: 25%; survival at 2 mg/kg [6]: 25%
5 | O=C(Nc1cc(C(F)(F)F)cc(C(F)(F)F)c1)Nc1nc(CCCO)cs1 | 5.68 | – | –
6 | COCCN(CCOC)Cc1cc(NC(=O)Nc2cc(C(F)(F)F)cc(C(F)(F)F)c2)n(-c2ccc(Br)cc2)n1 | 5.81 | 16 (≈ 25.1 µM) | survival at 20 mg/kg [5]: 25%; survival at 2 mg/kg [6]: 25%; Survival [1]: 33%; Survival [2]: 0%
7 | O=C(Nc1cc(C(F)(F)F)cc(C(F)(F)F)c1)Nc1c(-c2ccccc2)cnn1-c1ccc(C(F)(F)F)cc1 | 6.48 | – | survival at 20 mg/kg [5]: 0%; survival at 2 mg/kg [6]: 0%
8 | O=C(Nc1cc(C(F)(F)F)cc(C(F)(F)F)c1)Nc1cc(-c2ccncc2)nn1-c1ccc(C(F)(F)F)cc1 | 6.67 | 1.68 (≈ 3 µM) | survival at 20 mg/kg [5]: 25%; survival at 2 mg/kg [6]: 25%; Survival [1]: 17%; Survival [2]: 0%
9 | O=C(Nc1cc(C(F)(F)F)cc(C(F)(F)F)c1)Nc1cc(-c2ccccc2)nn1-c1ccc(C(F)(F)F)cc1 | 7.27 | < 0.838 | survival at 20 mg/kg [5]: 0%; survival at 2 mg/kg [6]: 0%
10 | Cc1sc(NC(=O)Nc2cc(C(F)(F)F)cc(C(F)(F)F)c2)nc1-c1ccc(Br)cc1 | 6.08 | – | –
11 | O=C(Nc1cc(C(F)(F)F)cc(C(F)(F)F)c1)Nc1nc(-c2ccc(Br)cc2)cs1 | 6.88 | – | –
12 | O=C(NCc1cccc(Cl)c1)Nc1nc(C2CCCC2)cs1 | – | 8.4 (≈ 25 µM) | Survival [1]: 25%; Survival [2]: 25%
13 | O=C(Nc1ccccc1-c1ccccc1)Nc1cc(-c2ccccc2)nn1-c1ccc(C(F)(F)F)cc1 | – | – | IC50 [7]: Not Active; MIC [8]: inactive
14 | O=C(Nc1cccc(Br)c1)Nc1nc(-c2ccc(Br)cc2)cs1 | 6.27 | – | –
15 | Cc1cc(NC(=O)Nc2cc(C(F)(F)F)cc(C(F)(F)F)c2)n(-c2ccc(Br)cc2)n1 | 6.57 | < 0.761 | –
16 | CN[C@H](CC(C)C)C(=O)N[C@H]1C(=O)N[C@@H](CC(N)=O)C(=O)N[C@H]2C(=O)N[C@H]3C(=O)N[C@H](C(=O)N[C@H](C(=O)O)c4cc(O)cc(O)c4-c4cc3ccc4O)[C@H](O)c3ccc(c(Cl)c3)Oc3cc2cc(c3O[C@@H]2O[C@H](CO)[C@@H](O)[C@H](O)[C@H]2O[C@H]2C[C@](C)(N)[C@H](O)[C@H](C)O2)Oc2ccc(cc2Cl)[C@H]1O [VANCOMYCIN] | 6.08 | 0.75 (≈ 0.518 µM) | Survival [1]: 100%; Survival [2]: 25%
17 | Cc1cc(C)cc(NC(=O)Nc2cc(-c3ccccc3)nn2-c2ccc(C(F)(F)F)cc2)c1 | – | – | IC50 [7]: Not Active; MIC [8]: inactive
18 | O=C(Nc1ccc(F)c(C(F)(F)F)c1)Nc1nc(-c2ccc(F)c(F)c2)cs1 | 6.74 | < 0.626 | survival at 20 mg/kg [5]: 0%; survival at 2 mg/kg [6]: 0%

Row | SMILES | pIC50 [3] | MIC [4] [mg/L] | further results
19 | O=C(Nc1nc(-c2ccc(Cl)cc2)cs1)Nc1c(Cl)cc(Cl)cc1Cl | 6.03 | – | –
20 | O=C(Nc1ccc(C(F)(F)F)cc1Cl)Nc1cc(-c2ccccc2)nn1-c1ccc(C(F)(F)F)cc1 | – | – | IC50 [7]: Not Active; MIC [8]: inactive
21 | O=C(NCc1ccc(Cl)c(Cl)c1)Nc1nc(-c2ccc(Br)cc2)cs1 | – | 11.4 (≈ 24.9 µM) | –
22 | CCOC(=O)c1cnn(-c2ccc(Br)cc2)c1NC(=O)Nc1cc(C(F)(F)F)cc(C(F)(F)F)c1 | 6.58 | < 0.848 | –
23 | O=C(Nc1nc(-c2ccc(Cl)cc2)cs1)Nc1ccc(Br)cc1C(F)(F)F | 5.33 | – | –
24 | O=C(Nc1ccc(Cl)c(C(F)(F)F)c1)Nc1cc(-c2ccccc2)nn1-c1ccc(C(F)(F)F)cc1 | 7.02 | < 0.787 | –
25 | CC(C)(C)c1cc(NC(=O)Nc2cc(Cl)cc(Cl)c2)n(-c2ccc(Br)cc2)n1 | 6.88 | < 0.723 | survival at 20 mg/kg [5]: 0%; survival at 2 mg/kg [6]: 0%
26 | O=C(Nc1cc(Cl)cc(Cl)c1)Nc1cc(-c2cccs2)nn1-c1ccc(Br)cc1 | 7.15 | 0.847 (≈ 1.67 µM) | survival at 20 mg/kg [5]: 25%; survival at 2 mg/kg [6]: 0%
27 | COc1ccc(-c2csc(NC(=O)Nc3cc(C(F)(F)F)cc(C(F)(F)F)c3)n2)c(OC)c1 | < 5.30 | – | –
28 | Cc1cc(C)cc(NC(=O)Nc2nc(-c3ccc(Cl)cc3)cs2)c1 | < 5.30 | – | –
29 | CCOC(=O)c1cc(NC(=O)Nc2cc(C(F)(F)F)cc(C(F)(F)F)c2)n(-c2ccc(Br)cc2)n1 | 5.51 | > 14.1 | Survival [1]: 33%; Survival [2]: 0%
30 | COc1ccc(OC)c(-c2csc(NC(=O)Nc3cc(C(F)(F)F)cc(C(F)(F)F)c3)n2)c1 | < 5.30 | – | –
31 | O=C(Nc1cc(C(F)(F)F)cc(C(F)(F)F)c1)Nc1nc(-c2cccs2)cs1 | 6.59 | 1.31 (≈ 3 µM) | –
32 | COc1cc(NC(=O)Nc2nc(-c3ccc(Cl)cc3)cs2)cc(OC)c1 | < 5.30 | – | –
33 | O=C(Nc1ccc(SC(F)(F)F)cc1)Nc1nc(-c2ccc(F)c(F)c2)cs1 | 6.87 | < 0.647 | –
34 | O=C(Nc1cc(C(F)(F)F)cc(C(F)(F)F)c1)Nc1nc(CCc2ccccc2)cs1 | 6.44 | 23 (≈ 50.1 µM) | –
35 | CC(C)(C)c1csc(NC(=O)NCc2cccc(Cl)c2)n1 | – | 8.1 (≈ 25 µM) | Survival [1]: 50%; Survival [2]: 25%
